The source of these data is patent US20240092936A1, “METHODS OF TREATING HER2 POSITIVE BREAST CANCER WITH TUCATINIB IN COMBINATION WITH CAPECITABINE AND TRASTUZUMAB” (Seagen Inc., priority 2019, published 2024).

For data set [1] the following is noted: cited from earlier work.
In data set [2] the test system is patients on tucatinib studies. Nature of the data set: Safety observations in earlier tucatinib studies (e.g. ONT-380-005). The format is in vivo, human. The note with it: patients taking tucatinib alone or in combination. The text has this: Trastuzumab and other HER2-targeted therapies were known to increase the risk of the development of asymptomatic and symptomatic declines in LVEF. […] Cardiac function was therefore monitored closely.
Monitoring of liver function tests was required for any patient taking tucatinib.
Patients with brain metastases were at risk for occurrence of AEs due to the presence of CNS lesions, progression of disease and toxicities potentially related to study treatment. On occasion, treatment of brain metastases with systemic or radiation therapy had been associated with localized edema thought to be due to treatment effect and not tumor progression. […] The patient's symptoms responded rapidly and completely to systemic corticosteroids. It was not known if this patient's symptoms were due to local progression or treatment-related toxicity. […] The patient was taken for surgical resection, and found to have no viable tumor. The resected lesion was thought to represent treatment-related necrosis.

Setting [3] is: Table 11, strong inhibitors or inducers of CYP3A4.
[4] abbreviates: Table 10, strong inhibitors and inducer of CYP2C8.

Entries after “also recorded” stand apart in the source; their conditions may differ. Read-outs that look alike come from different tables or passages of the source.

`COc1ccc([C@@H]2Sc3ccccc3N(CCN(C)C)C(=O)[C@@H]2OC(C)=O)cc1` [Diltiazem]: the “Elimination Half-life” value in data set [1] (setting [3]) was 3 to 4 h. As to `COC(=O)[C@H](c1ccccc1Cl)N1CCc2sccc2C1` [Clopidogrel], the “Elimination Half-life” value in data set [1] (setting [4]) is 6 h. Take `CCC(C)n1ncn(-c2ccc(N3CCN(c4ccc(OCC5COC(Cn6cncn6)(c6ccc(Cl)cc6Cl)O5)cc4)CC3)cc2)c1=O` (centres unmarked) [Itraconazole]: in data set [1] (Table 11, repeat dose), the “Elimination Half-life” value was 34 to 42 h (repeat dose). Moreover, in data set [1] (Table 11, single dose), the “Elimination Half-life (hours)” value is 16-28 hours (single dose),. Regarding `CC(C)(O)c1ccccc1CC[C@@H](SCC1(CC(=O)O)CC1)c1cccc(/C=C/c2ccc3ccc(Cl)cc3n2)c1` [Montelukast], the “Elimination Half-life” value in data set [1] (setting [4]) is 3 to 6 h. As to `NC(=O)N1c2ccccc2C=Cc2ccccc21` [Carbamazepine], the “Elimination Half-life” value in data set [1] (Table 11, repeat dose) was 12 to 17 h (repeat dose). For the same compound, the “Elimination Half-life (hours)” value in data set [1] (Table 11, single dose) is given as 25-65 hours (single does),. Consider `Cc1cc(Nc2ncnc3ccc(NC4=NC(C)(C)CO4)cc23)ccc1Oc1ccn2ncnc2c1` [tucatinib], for which the “Adverse findings reported in earlier tucatinib studies” value in data set [2] is “rare reports of asymptomatic cardiac failure; also recorded: Grade 3 and 4 elevation of LFTs had been seen in some patients”. For `CC[C@@H]([C@H](C)O)n1ncn(-c2ccc(N3CCN(c4ccc(OC[C@@H]5CO[C@@](Cn6cncn6)(c6ccc(F)cc6F)C5)cc4)CC3)cc2)c1=O` [Posoconazole], the “Elimination Half-life” value in data set [1] (setting [3]) was 27 to 35 h. As to `Cc1ccc(C)c(OCCCC(C)(C)C(=O)O)c1` [Gemfibrozil], the “Elimination Half-life” value in data set [1] (setting [4]) was 1 to 2 h.

Take Troleanomycin: the “Elimination Half-life” value in data set [1] (setting [3]) is 2 h.

Take `COc1cc(Cc2cnc(N)nc2N)cc(OC)c1OC` [Trimethoprim]: the “Elimination Half-life” value in data set [1] (setting [4]) was 8 to 12 h. As for `CC[C@H]1OC(=O)[C@H](C)[C@@H](O[C@H]2C[C@@](C)(OC)[C@@H](O)[C@H](C)O2)[C@H](C)[C@@H](O[C@@H]2O[C@H](C)C[C@H](N(C)C)[C@H]2O)[C@](C)(OC)C[C@@H](C)C(=O)[C@H](C)[C@@H](O)[C@]1(C)O` [Clarithromycin], the “Elimination Half-life” value in data set [1] (setting [3]) is 3 to 7 h. On to `O=C1NC(=O)C(c2ccccc2)(c2ccccc2)N1` [Phenytoin], for which the “Elimination Half-life” value in data set [1] (setting [3]) was 7 to 42 h. As for `CCc1nn(CCCN2CCN(c3cccc(Cl)c3)CC2)c(=O)n1CCOc1ccccc1` [Nefazodone], the “Elimination Half-life” value in data set [1] (setting [3]) was 2 to 4 h.

Take `C[C@@H](c1ncncc1F)[C@](O)(Cn1cncn1)c1ccc(F)cc1F` [Voriconazole]: in data set [1] (setting [3]), the “Elimination Half-life (hours)” value is listed as “Dose dependent”. For `CC(=O)N1CCN(c2ccc(OCC3COC(Cn4ccnc4)(c4ccc(Cl)cc4Cl)O3)cc2)CC1` (centres unmarked) [Ketoconazole (systemic), Ketoconazole], in data set [1] (setting [3]), the “Elimination Half-life” value is 2 to 8 h.
